Test results published in ChEMBL document CHEMBL5665443, “Enzyme Inhibitor Single Concentration assay results for EUbOPEN Chemogenomics Library” (2024).

Assays:
[1] = target: T1, Endonuclease 8-like 2 (Homo sapiens) (UniProt Q969S2);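 note: fluorescence at 594 nm reports NEIL2 cutting and release of a quenched double-stranded DNA oligo substrate, reduced signal read as inhibition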
T1 sequence (whole entry): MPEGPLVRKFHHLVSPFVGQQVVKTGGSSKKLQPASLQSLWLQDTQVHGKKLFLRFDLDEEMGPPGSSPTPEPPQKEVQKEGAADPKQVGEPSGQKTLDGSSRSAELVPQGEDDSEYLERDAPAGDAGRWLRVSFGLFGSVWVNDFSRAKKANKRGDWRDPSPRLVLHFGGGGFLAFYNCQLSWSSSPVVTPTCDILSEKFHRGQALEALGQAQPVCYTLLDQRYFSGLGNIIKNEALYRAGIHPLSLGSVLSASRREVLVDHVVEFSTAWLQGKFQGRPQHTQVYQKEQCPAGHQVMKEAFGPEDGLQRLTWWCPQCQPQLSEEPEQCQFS
Description: Inhibition of NEIL2 by quantifying inhibition of NEIL2-mediated cleavage and dissociation of quenched duplex DNA oligonucleotides, measured as fluorescence at 594 nm.

[2] = target: T2, Endonuclease III-like protein 1 (Homo sapiens) (UniProt P78549); settings: Hit No;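 note: enzyme assay tracking NTHL1 cutting and release of a quenched double-stranded DNA oligo substrate, read as fluorescence at 594 nm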
T2 sequence (whole entry): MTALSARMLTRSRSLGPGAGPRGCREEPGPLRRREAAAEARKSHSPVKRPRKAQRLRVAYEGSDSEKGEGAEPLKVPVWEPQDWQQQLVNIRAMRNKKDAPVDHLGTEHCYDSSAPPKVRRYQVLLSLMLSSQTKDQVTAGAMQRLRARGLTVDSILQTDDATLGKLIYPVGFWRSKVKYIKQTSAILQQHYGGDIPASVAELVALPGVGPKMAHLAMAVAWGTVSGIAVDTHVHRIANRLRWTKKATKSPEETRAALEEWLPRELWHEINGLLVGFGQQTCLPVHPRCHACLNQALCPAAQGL
Description: Inhibition of NTHL1 by quantifying inhibition of NTHL1-mediated cleavage and dissociation of quenched duplex DNA oligonucleotides, measured as fluorescence at 594 nm.

[3] = target: T3, Adenine DNA glycosylase (Homo sapiens) (UniProt Q9UIF7); settings: Hit No;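 note: human MUTYH activity read as 594 nm fluorescence from cleavage and release of a quenched DNA duplex, coupled with APE1 for strand incision, lower signal meaning inhibition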
T3 sequence (whole entry): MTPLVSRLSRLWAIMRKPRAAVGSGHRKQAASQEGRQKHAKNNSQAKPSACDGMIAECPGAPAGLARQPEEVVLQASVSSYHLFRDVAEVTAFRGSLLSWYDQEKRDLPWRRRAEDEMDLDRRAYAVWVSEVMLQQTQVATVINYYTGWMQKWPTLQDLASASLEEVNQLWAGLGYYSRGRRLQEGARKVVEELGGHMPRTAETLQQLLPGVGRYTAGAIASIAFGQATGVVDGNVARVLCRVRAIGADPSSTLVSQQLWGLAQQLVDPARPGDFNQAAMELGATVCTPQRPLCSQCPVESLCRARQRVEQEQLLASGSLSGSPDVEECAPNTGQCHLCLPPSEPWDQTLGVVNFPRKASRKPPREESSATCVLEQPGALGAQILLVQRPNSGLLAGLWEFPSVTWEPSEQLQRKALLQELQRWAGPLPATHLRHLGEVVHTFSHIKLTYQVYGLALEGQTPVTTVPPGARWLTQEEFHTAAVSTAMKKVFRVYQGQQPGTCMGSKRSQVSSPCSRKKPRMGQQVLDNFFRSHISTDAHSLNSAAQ
Description: Inhibition of MUTYH by quantifying inhibition of MUTYH-mediated cleavage and dissociation of quenched duplex DNA oligonucleotides, measured as fluorescence at 594 nm. To generate a functional strand incision and increase turn-over this assay is coupled to APE1.

[4] = target: Endonuclease 8-like 1 (Homo sapiens) (UniProt Q96FI4); settings: Hit No;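 note: fluorescence at 594 nm from quenched duplex DNA oligonucleotides released by NEIL1 cleavage and strand separation, reported as reduction of this enzyme activity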
Endonuclease 8-like 1 (Homo sapiens), sequence (Q96FI4 whole entry): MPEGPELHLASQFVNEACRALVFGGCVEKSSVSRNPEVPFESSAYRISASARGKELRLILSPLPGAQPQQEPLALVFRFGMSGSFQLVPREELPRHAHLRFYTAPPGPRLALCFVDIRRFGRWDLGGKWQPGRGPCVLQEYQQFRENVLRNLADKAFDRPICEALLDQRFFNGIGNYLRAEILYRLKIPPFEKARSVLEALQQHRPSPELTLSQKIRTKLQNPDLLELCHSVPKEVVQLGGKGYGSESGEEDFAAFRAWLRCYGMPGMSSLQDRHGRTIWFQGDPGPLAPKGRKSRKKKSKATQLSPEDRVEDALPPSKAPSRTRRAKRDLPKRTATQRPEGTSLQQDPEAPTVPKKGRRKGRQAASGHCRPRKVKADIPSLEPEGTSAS
Description: Inhibition of NEIL1 by quantifying inhibition of NEIL1-mediated cleavage and dissociation of quenched duplex DNA oligonucleotides, measured as fluorescence at 594 nm.

[5] = target: T4, Single-strand selective monofunctional uracil DNA glycosylase (Homo sapiens) (UniProt Q53HV7); settings: Hit No;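 note: enzymatic SMUG1 assay coupled with APE1, reading fluorescence at 594 nm released when a quenched double-stranded DNA oligonucleotide substrate is cleaved and separated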
T4 sequence (whole entry): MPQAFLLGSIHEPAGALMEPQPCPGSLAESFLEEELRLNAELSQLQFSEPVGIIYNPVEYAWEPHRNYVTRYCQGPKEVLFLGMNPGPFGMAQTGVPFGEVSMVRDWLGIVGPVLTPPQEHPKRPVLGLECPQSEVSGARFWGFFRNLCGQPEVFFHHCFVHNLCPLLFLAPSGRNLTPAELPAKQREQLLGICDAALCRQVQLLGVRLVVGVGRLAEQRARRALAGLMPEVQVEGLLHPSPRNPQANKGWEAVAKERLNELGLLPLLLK
Description: Inhibition of SMUG1 by quantifying inhibition of SMUG1-mediated cleavage and dissociation of quenched duplex DNA oligonucleotides, measured as fluorescence at 594 nm. To generate a functional strand incision and increase turn-over this assay is coupled to APE1.

[6] = target: G/T mismatch-specific thymine DNA glycosylase (Homo sapiens) (UniProt Q13569); settings: Hit No;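 note: human TDG cleavage of quenched duplex DNA oligonucleotides coupled to APE1, strand release read as fluorescence at 594 nm, inhibition of TDG activity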
G/T mismatch-specific thymine DNA glycosylase (Homo sapiens), sequence (Q13569 whole entry): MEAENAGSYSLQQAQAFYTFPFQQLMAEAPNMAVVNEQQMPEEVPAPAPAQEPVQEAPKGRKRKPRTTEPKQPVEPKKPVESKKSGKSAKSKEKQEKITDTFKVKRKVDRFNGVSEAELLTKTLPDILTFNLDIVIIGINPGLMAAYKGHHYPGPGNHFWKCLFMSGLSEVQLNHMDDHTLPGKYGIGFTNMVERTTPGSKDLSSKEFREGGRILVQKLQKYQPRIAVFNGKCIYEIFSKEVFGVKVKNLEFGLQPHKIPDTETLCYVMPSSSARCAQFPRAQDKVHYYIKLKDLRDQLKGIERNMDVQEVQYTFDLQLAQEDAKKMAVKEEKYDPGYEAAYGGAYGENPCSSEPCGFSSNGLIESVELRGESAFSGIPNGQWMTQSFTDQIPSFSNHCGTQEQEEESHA
Description: Inhibition of TDG by quantifying inhibition of TDG-mediated cleavage and dissociation of quenched duplex DNA oligonucleotides, measured as fluorescence at 594 nm. To generate a functional strand incision and increase turn-over this assay is coupled to APE1.

[7] = target: N-glycosylase/DNA lyase (Homo sapiens) (UniProt O15527); settings: Hit No;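 note: OGG1 cleavage of a quenched duplex DNA oligonucleotide, coupled to APE1 for strand incision, read as fluorescence at 594 nm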
N-glycosylase/DNA lyase (Homo sapiens), sequence (O15527 whole entry): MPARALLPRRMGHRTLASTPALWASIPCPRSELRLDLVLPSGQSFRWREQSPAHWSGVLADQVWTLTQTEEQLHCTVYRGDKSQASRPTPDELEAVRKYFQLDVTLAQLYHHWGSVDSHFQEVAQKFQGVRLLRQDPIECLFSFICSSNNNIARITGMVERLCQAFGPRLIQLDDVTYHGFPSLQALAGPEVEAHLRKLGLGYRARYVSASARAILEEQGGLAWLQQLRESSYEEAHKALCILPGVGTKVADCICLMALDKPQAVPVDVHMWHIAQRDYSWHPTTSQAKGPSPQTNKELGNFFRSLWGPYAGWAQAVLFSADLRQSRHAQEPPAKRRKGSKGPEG
Description: Inhibition of OGG1 by quantifying inhibition of OGG1-mediated cleavage and dissociation of quenched duplex DNA oligonucleotides, measured as fluorescence at 594 nm. To generate a functional strand incision and increase turn-over this assay is coupled to APE1.

[8] = target: Uracil-DNA glycosylase (Homo sapiens) (UniProt P13051); settings: Hit No;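 note: UNG excision on a quenched double-stranded DNA oligo probe, with APE1 added for strand incision and turnover, read as fluorescence at 594 nm as strands separate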
Uracil-DNA glycosylase (Homo sapiens), sequence (P13051 whole entry, the tested form may be a part): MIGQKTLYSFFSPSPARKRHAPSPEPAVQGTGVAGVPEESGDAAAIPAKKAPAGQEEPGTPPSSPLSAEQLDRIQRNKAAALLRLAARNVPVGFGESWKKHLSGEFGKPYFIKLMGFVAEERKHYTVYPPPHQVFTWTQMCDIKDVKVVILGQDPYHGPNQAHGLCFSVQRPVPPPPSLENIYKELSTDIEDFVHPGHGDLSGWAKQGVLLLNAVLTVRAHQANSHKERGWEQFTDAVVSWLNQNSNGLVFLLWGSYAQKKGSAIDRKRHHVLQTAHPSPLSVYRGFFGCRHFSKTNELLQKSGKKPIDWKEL
Description: Inhibition of UNG by quantifying inhibition of UNG-mediated cleavage and dissociation of quenched duplex DNA oligonucleotides, measured as fluorescence at 594 nm. To generate a functional strand incision and increase turn-over this assay is coupled to APE1.

[9] = target: Methyl-CpG-binding domain protein 4 (Homo sapiens) (UniProt O95243); settings: Hit No;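 note: MBD4 activity read as fluorescence at 594 nm from cleavage and release of a quenched duplex DNA oligonucleotide, with APE1 coupled to incise the strand and raise turnover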
Methyl-CpG-binding domain protein 4 (Homo sapiens), sequence (O95243 whole entry, the tested form may be a part): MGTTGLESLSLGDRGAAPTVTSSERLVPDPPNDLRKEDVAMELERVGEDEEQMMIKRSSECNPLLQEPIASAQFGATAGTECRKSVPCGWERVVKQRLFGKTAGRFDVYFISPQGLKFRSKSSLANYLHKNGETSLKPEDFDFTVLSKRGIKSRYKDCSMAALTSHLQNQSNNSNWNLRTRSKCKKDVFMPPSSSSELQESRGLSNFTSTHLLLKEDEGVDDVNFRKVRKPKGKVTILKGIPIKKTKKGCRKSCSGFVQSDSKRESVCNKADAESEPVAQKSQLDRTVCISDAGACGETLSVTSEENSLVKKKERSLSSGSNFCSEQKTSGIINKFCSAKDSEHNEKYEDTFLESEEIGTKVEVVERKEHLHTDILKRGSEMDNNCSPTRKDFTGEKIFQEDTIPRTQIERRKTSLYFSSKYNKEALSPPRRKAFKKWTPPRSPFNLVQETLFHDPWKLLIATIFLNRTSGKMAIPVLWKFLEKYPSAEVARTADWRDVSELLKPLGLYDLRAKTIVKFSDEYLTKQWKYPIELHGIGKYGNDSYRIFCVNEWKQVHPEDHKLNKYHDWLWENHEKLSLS
Description: Inhibition of MBD4 by quantifying inhibition of MBD4-mediated cleavage and dissociation of quenched duplex DNA oligonucleotides, measured as fluorescence at 594 nm. To generate a functional strand incision and increase turn-over this assay is coupled to APE1.

[10] = Compound Concentration 10.0 uM, Hit No
[11] = Compound Concentration 1.0 uM, Hit No

SMILES | inhibition [1, 10] [%] | inhibition ([2]; Compound Concentration 10.0 uM) [%] | inhibition ([3]; Compound Concentration 10.0 uM) [%] | inhibition ([4]; Compound Concentration 10.0 uM) [%] | inhibition ([5]; Compound Concentration 10.0 uM) [%] | inhibition ([6]; Compound Concentration 10.0 uM) [%] | inhibition ([7]; Compound Concentration 10.0 uM) [%] | inhibition ([8]; Compound Concentration 10.0 uM) [%] | inhibition ([1]; Compound Concentration 10.0 uM, Hit Yes) [%] | inhibition ([8]; Compound Concentration 1.0 uM) [%] | inhibition ([2]; Compound Concentration 1.0 uM) [%] | inhibition ([3]; Compound Concentration 1.0 uM) [%] | inhibition ([5]; Compound Concentration 1.0 uM) [%] | inhibition ([6]; Compound Concentration 1.0 uM) [%] | inhibition ([9]; Compound Concentration 10.0 uM) [%] | inhibition [1, 11] [%] | inhibition ([4]; Compound Concentration 1.0 uM) [%] | inhibition ([7]; Compound Concentration 1.0 uM) [%] | inhibition ([9]; Compound Concentration 1.0 uM) [%]
C=CCN1C[C@H](C(=O)N(CCCN(C)C)C(=O)NCC)C[C@@H]2c3cccc4[nH]cc(c34)C[C@H]21 | -3.73 | 1.92 | 1.81 | 10.6 | -9.96 | -7.89 | – | – | – | – | – | – | – | – | – | – | – | – | –
CC(=O)NCCc1c(Cc2ccccc2)[nH]c2ccccc12 | 3.51 | 2.66 | 0.533 | 4.1 | – | 16.3 | -9.93 | – | – | – | – | – | – | – | – | – | – | – | –
OC[C@H]1O[C@@H](n2cnc3c(NC4CCCC4)ncnc32)[C@H](O)[C@@H]1O | 11.2 | 7.05 | 9.75 | 2.61 | -9.38 | -6.42 | – | – | – | – | – | – | – | – | – | – | – | – | –
COc1ccccc1CN[C@H]1C2CCN(CC2)[C@H]1C(c1ccccc1)c1ccccc1 | -6.97 | -5.41 | 11.2 | -4.06 | – | 0.738 | -6.59 | -4.4 | – | – | – | – | – | – | – | – | – | – | –
CC(C)NCC(O)COc1cccc2ccccc12 (stereo not drawn) | – | 13.7 | 3.6 | -0.797 | 3.41 | 5.22 | – | -6.12 | 35 | – | – | – | – | – | – | – | – | – | –
CCC(=O)NC[C@@H]1C[C@H]1c1cccc2c1CCO2 | -7.72 | -4.67 | 2.71 | 4.24 | – | 4.27 | 1.29 | – | – | – | – | – | – | – | – | – | – | – | –
CN(C)[C@H]1CCN(c2cc(-c3ccccc3)nc3ccnn23)C1 | 9.71 | – | 15.6 | 6.98 | 13.5 | 49 | 10.6 | 9.72 | – | – | – | – | – | – | 77.8 | – | – | – | –
O=S(=O)(Nc1ccc(C(O)(C(F)(F)F)C(F)(F)F)cc1)c1cccs1 | -2.02 | – | 12.6 | -9.23 | 19.9 | 99.8 | 9.18 | 4.47 | – | – | – | – | – | – | 63.6 | – | – | – | –
CC1CCN(c2ccnc(NCc3cn(C)cn3)n2)CC1 | 3.08 | – | 19.8 | 1.98 | 15.3 | 50.4 | 19.9 | 5.91 | – | – | – | – | – | – | 67.6 | – | – | – | –
NC1(c2ccc(-c3nc4ccn5c(=O)[nH]nc5c4cc3-c3ccccc3)cc2)CCC1 | -9.46 | – | 56.1 | 17.6 | 29.1 | 71.2 | 10.8 | 17.3 | – | – | – | – | – | – | 37.9 | – | – | – | –
Cn1cc(Nc2nccc(N3CC4CCC(C3)N4C(=O)[C@@H]3CC3(F)F)n2)cn1 | -8.92 | – | -8.86 | 0.138 | 8.21 | 35.9 | -0.945 | -0.791 | – | – | – | – | – | – | -6.61 | – | – | – | –
O=C(NNS(=O)(=O)c1ccccc1)c1cc(-c2ccnnc2)ccc1F | 5.38 | – | 0.332 | -4.38 | 13.8 | 49.7 | 8.54 | 6.08 | – | – | – | – | – | – | 88.3 | – | – | – | –
CNC(=O)Nc1ccc(-c2nc(N3CC4CCC(C3)O4)c3cnn(C4CCC5(CC4)OCCO5)c3n2)cc1 | – | 2.88 | 5.83 | 2.52 | 15.7 | 46.1 | – | 6.27 | – | – | – | – | – | – | – | – | – | – | –
O=C(Cc1ccccc1)Nc1nnc(N2CC[C@@H]3[C@H]2CN3c2cccnn2)s1 | – | – | – | – | – | – | – | – | – | 9.87 | – | 7.76 | 9.42 | 43.7 | – | -8.65 | 0.316 | 3.62 | 66
CCCOc1ccc([C@@H]2[C@@H](C(=O)O)[C@H](c3ccc4c(c3)OCO4)CN2CC(=O)Nc2c(CC)cccc2CC)cc1 | – | – | – | – | – | – | – | – | – | 4.27 | – | -8.3 | 18.8 | 57.1 | – | 9.71 | -3.17 | 12 | 66.2
Nc1nc(NCc2ccccc2)nc(-c2ccccc2CO)n1 | 5.12 | – | -3 | -7.11 | -2.01 | 52 | 4.21 | 2.12 | – | – | – | – | – | – | 61.2 | – | – | – | –
O=C(Nc1nc2cccc(-c3ccc(CN4CCS(=O)(=O)CC4)cc3)n2n1)C1CC1 | -1.92 | – | 3.59 | -4.22 | 27.3 | 66.4 | 1.15 | 2.98 | – | – | – | – | – | – | -0.894 | – | – | – | –

Other lines, results leading:

inhibition [1, 10] [%] | inhibition ([2]; Compound Concentration 10.0 uM) [%] | inhibition ([3]; Compound Concentration 10.0 uM) [%] | inhibition ([4]; Compound Concentration 10.0 uM) [%] | inhibition ([5]; Compound Concentration 10.0 uM) [%] | inhibition ([6]; Compound Concentration 10.0 uM) [%] | inhibition ([7]; Compound Concentration 10.0 uM) [%] | inhibition ([8]; Compound Concentration 10.0 uM) [%] | inhibition ([1]; Compound Concentration 10.0 uM, Hit Yes) [%] | inhibition ([8]; Compound Concentration 1.0 uM) [%] | inhibition ([2]; Compound Concentration 1.0 uM) [%] | inhibition ([3]; Compound Concentration 1.0 uM) [%] | inhibition ([5]; Compound Concentration 1.0 uM) [%] | inhibition ([6]; Compound Concentration 1.0 uM) [%] | inhibition ([9]; Compound Concentration 10.0 uM) [%] | inhibition [1, 11] [%] | inhibition ([4]; Compound Concentration 1.0 uM) [%] | inhibition ([7]; Compound Concentration 1.0 uM) [%] | inhibition ([9]; Compound Concentration 1.0 uM) [%] | SMILES
– | – | – | – | – | – | – | – | – | -1.9 | 4.97 | 19.4 | -1.31 | 46.9 | – | – | – | – | – | CN(C)C/C=C/C(=O)Nc1cc2c(Nc3ccc(F)c(Cl)c3)ncnc2cc1O[C@H]1CCOC1
8.5 | – | 25.5 | 3.95 | 5.83 | 17.8 | -5.3 | -5.46 | – | – | – | – | – | – | -9.38 | – | – | – | – | O=C(c1cc2c(cc1F)OC(c1ccc(F)cc1)(c1ccc(Cl)cc1Cl)O2)N1CCOCC1 (stereo not drawn)
– | 11.9 | -9.46 | – | -8.61 | 76.5 | – | -3.12 | – | – | – | – | – | – | – | – | – | – | – | CNc1cc(Oc2cc(C(=O)Nc3cc(N4CCN(C)CC4)cc(C(F)(F)F)c3)ccc2C)ncn1
– | – | – | – | – | – | – | – | – | 4.4 | – | 0.0592 | 22.4 | 98.8 | – | -2.53 | -6.35 | -0.951 | 67.4 | CNC(=O)Nc1ccc2c(c1)[C@@]1(CC2)OC(=O)N(CC(=O)N(Cc2ccc(F)cc2)[C@@H](C)C(F)(F)F)C1=O
– | – | – | – | – | – | – | – | – | 0.598 | -0.61 | -0.0556 | 19.2 | 43.2 | – | -5.15 | -1.18 | – | – | Cn1cc(-c2[nH]c3cc(NC(=O)[C@H](N)C4CCCCC4)cc4c3c2C=NNC4=O)cn1
– | -2 | -2.54 | – | 5.15 | 93.1 | – | 0.303 | – | – | – | – | – | – | – | – | – | – | – | COc1ccc(Oc2cc(NCCC(F)(F)F)c3ncc(-c4ccc(C(=O)NC5CC5)c(C)c4)n3n2)c(F)c1F
2.83 | – | 13.4 | 1.83 | 23 | 98.2 | 9.77 | 5.29 | – | – | – | – | – | – | 60.1 | – | – | – | – | CC(=O)Nc1nc(C)c(S(=O)(=O)Nc2ccc(C(O)(C(F)(F)F)C(F)(F)F)cc2)s1
– | -8.28 | -2.18 | 11.5 | 16.2 | 39.7 | – | -1.17 | – | – | – | – | – | – | – | – | – | – | – | Cn1cnc2c(F)c(Nc3ccc(Br)cc3Cl)c(C(=O)NOCCO)cc21
– | – | 5.04 | – | -1.31 | 35.6 | 19.8 | 4.78 | – | -7.24 | – | – | 3.4 | 47 | – | -8.91 | -2.11 | 3.23 | 59.9 | Nc1c(C(=O)NCc2ccc(C(=O)NCCCC3CCCCC3)cc2)cnn1-c1ccccc1
